Test results taken from patent US20060211703A1, “Substituted alkyl-pyridazinones for the treatment of memory and learning malfunctions” (priority 2003, published 2006).
Entries after “also recorded” stand apart in the source; their conditions may differ.

How the values were obtained:
Male Wistar rats = experiment: step through-type passive avoidance learning test; type: in vivo, rat; conditions: 30 min before test, FIG. 1
Procedure: Male Wistar rats weighing 200-220 g were used. The animals were obtained from Charles River Co. They were kept in a room with normal 12-12 h light dark cycle (light on: 06:00) at relative humidity of 60±10%.
The experiment was performed in a five-channel “step through”-type passive avoidance learning apparatus. The equipment consisted of to adjacent Plexi-glass box of 20×20×16 cm. One of them was made of regular transparent Plexi-glass and the other one was made of black, non-transparent Plexi-glass. The boxes were connected with a 7.5×8 cm passageway, equipped with a computer-controlled guillotine-door. The passage of the rats through the door was detected by infrared photocells arranged in two parallel lines in the opening of the passageway. The door was automatically closed when the animals passed through. The dark compartment was equipped with stainless steel grid floor through which electric foot shocks could have been delivered to the animals. […]
The individually numbered animals were placed into the light compartment of the equipment. […] Step through latency was automatically determined. […]
After 24 h the animals were placed again in the light compartment of the test apparatus and step-through latency was measured as described at Acquisition day, except that no foot shock was applied to the animals in any group on the second day. […]

[1] = known anxiolytic compounds, comparison statement; cited from earlier work

| Structure (SMILES) | step-through latency into the dark compartment (effect on acquisition / learning) (Male Wistar rats; 1 mg/kg ip. at Day 1 (Acquisition), latency measured at Day 2, vs shocked vehicle control) | step-through latency into the dark compartment (effect on recall / long term memory) (Male Wistar rats; 1 mg/kg ip. at Day 2 (Retention), vs shocked vehicle control) | effect on memory [1] |
| --- | --- | --- | --- |
| O=c1cc(NCCN2CCN(c3cccc4c3OCCO4)CC2)cn[nH]1 [compound A, 5-[2-[4-(2,3-dihydro-benzo[1,4]dioxine-5-yl)-piperazine-1-yl]-ethylamine]-2H-pyridazine-3-one] | significantly increased; also recorded: further increased | significantly increased | – |
| CN1C(=O)CN=C(c2ccccc2)c2cc(Cl)ccc21 [diazepam] | – | – | deleterious |
